The text below walks through data of patent publication US8716277B2, “Substituted imidazole compounds useful as positive allosteric modulators of mGlu5 receptor activity” (Boehringer Ingelheim International GmbH, priority 2011, dated 2014).

pEC50: −log10 of the molar value.

One may read the pEC50 as the EC50 on a negative log10 scale, so that one unit is a factor of ten.

T1 sequence (P41594 21-1212): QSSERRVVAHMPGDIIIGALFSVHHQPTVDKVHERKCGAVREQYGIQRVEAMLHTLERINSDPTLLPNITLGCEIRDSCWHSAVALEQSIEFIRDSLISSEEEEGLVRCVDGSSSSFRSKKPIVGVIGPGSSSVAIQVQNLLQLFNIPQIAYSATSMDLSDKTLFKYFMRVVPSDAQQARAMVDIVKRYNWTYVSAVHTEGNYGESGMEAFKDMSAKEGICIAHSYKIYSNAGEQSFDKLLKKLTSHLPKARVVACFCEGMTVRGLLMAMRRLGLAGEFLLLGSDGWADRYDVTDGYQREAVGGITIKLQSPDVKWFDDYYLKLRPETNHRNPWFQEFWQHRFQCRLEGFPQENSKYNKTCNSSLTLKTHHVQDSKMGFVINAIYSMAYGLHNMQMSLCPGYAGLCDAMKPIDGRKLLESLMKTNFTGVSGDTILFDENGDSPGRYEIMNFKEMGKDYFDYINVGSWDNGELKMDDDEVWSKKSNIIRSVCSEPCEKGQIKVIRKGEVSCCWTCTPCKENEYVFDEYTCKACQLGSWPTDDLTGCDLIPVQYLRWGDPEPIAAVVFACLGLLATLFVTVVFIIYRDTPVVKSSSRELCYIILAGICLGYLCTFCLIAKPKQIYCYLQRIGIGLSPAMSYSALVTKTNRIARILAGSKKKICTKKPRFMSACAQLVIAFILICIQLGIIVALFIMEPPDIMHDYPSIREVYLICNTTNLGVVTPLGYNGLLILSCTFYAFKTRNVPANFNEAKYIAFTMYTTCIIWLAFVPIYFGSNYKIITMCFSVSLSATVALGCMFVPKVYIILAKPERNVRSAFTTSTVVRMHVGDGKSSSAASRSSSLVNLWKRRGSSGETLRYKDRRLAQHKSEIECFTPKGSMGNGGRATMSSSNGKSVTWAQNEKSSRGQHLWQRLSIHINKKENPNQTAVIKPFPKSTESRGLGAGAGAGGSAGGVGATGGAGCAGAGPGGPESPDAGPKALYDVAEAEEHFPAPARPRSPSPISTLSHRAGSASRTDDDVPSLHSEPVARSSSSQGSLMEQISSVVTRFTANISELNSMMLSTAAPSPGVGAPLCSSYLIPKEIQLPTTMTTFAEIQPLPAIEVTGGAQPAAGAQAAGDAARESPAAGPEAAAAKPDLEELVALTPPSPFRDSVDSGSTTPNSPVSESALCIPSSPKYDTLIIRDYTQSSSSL

The experiment addresses T1, human recombinant mGluR5 (Homo sapiens, UniProt P41594).
T1 construct: expressed in transfected cells; host or cells: HEK 293
The experiment is described as follows: positive modulation of mGluR5, calcium based FLIPR assay. To be noted: EC50 of the modulation; HEK 293 cell line expressing human recombinant mGluR5; glutamate at approximately 5% basal stimulation; peak height of Ca fluorescence signal. How it is done:
The positive modulation of mGluR5 is measured in a HEK 293 cell line expressing human recombinant mGluR5 and is detected with calcium based FLIPR assay. The cells are cultured with DMEM supplemented with 10% FCS, 2 μg/mL tetracycline, 100 μg/mL hygromycin and 500 μg/mL gneticin. The cell culture media is exchanged for tetracycline-free cell culture media 3-7 days before the assay. One day before the assay the cell culture medium is exchanged to DMEM without glutamine and phenol red and supplemented with 10% FCS, 100 μg/mL hygromycin and 500 μg/mL geneticin. On the assay day, the medium of the subconfluent cultures is removed and the cells are detached by addition of 2.5 ml EDTA(0.02%) per 175 cm2 culture flask for 1 minute. The cells are resuspend in Ringer solution (140 mM NaCl, 5 mM KCl, 2.5 mM CaCl2, 1.5 mM MgCl2, 5 mM Glucose, 10 mM Hepes; adjusted to pH 7.4 with NaOH), pooled and Ringer solution added to adjust the volume to 50 mL. The cell suspension is centrifuged for […] at 1500 U/min (425 g). The supernatant is removed and the cells washed a second time with 50 ml fresh Ringer solution and centrifuged again as before. The supernatant is again removed and the pellet resuspended in Ringer solution to 1,000,000 cells/ml (1×10^6 cells/mL). The cells are plated onto BD BioCoat Poly-D-Lysine 384 well plates (20,000 cells/well; 20 μl/well). The lid covered plates are then incubated until use at 37° C./10% CO2. For dye loading, 20 μl of Calcium-4 assay kit solution (prepared according to the manufacturer's description in Ringer solution) are added to the cells and the plates are incubated for […] 37° C. and then […] at room temperature.
Controls, Compound Dilution and Assay Execution:
Each assay plate contained wells with “high” and “low” controls:
Low controls 1% DMSO/ringer solution + basal glutamate activation (defined as 100% CTL).
High controls 10 μM CDPPB+ basal glutamate activation (defined as 200% CTL).
Test compounds are dissolved and diluted in DMSO to 100-fold the desired concentrations. In a second step, the compounds are diluted in Ringer solution such that the compounds are 4-fold more concentrated than the desired final assay concentration. The final DMSO concentration was 1%.
20 μl of each compound solution are then transferred to the assay plate and the Ca2+ kinetic is measured to determine any intrinsic compound activity. After 5 mM incubation in the FLIPR device, the second stimulation with 20 μl of glutamate in Ringer solution (glutamate concentration adjusted to approximately 5% basal stimulation of the maximal possible glutamate effect) is added and the kinetic Ca2+ response of the wells was measured for the modulation effect.
The peak height of the Ca release related fluorescence signal (9-66) is used for the EC50. The EC50 of the modulation is calculated over a nonlinear regression with GraphPad Prism (Table 1).
For `Cc1nc2c(o1)CN(C(=O)Cc1nc(-c3ccc(F)cc3)cn1-c1ccc(F)cc1)CC2` [Example 7.01.01., 2-(1,4-Bis-(4-fluoro-phenyl)-1H-imidazol-2-yl)-1-(2-methyl-6,7-dihydro-4H-oxazolo[5,4-c]pyridin-5-yl)-ethanone], the pEC50 was 6.11. For the compound `Nc1nc2c(s1)CCN(C(=O)Cc1nc(-c3ccc(F)cc3)cn1-c1ccc(F)cc1)CC2` [Example 7.01.02.], the negative logarithm of the EC50 (pEC50) is 6.96. Turning to `Cc1nc2c(s1)CCN(C(=O)Cc1nc(-c3ccc(F)cc3)cn1-c1ccc(F)cc1)CC2` [Example 7.02.01., 2-[1,4-Bis-(4-fluoro-phenyl)-1H-imidazol-2-yl]-1-(2-methyl-4,5,7,8-tetrahydro-thiazolo[4,5-d]azepin-6-yl)-ethanone], the pEC50 is 7.03. In the case of `O=C(Cc1nc(-c2ccc(F)cc2)cn1-c1ccc(F)cc1)N1CCN(c2noc3ccccc23)CC1` [Example 7.02.02.], the pEC50 is 6.94. For `Cc1nc2c(s1)CN(C(=O)Cc1nc(-c3ccc(F)cc3)cn1-c1ccc(F)cc1)C2` [Example 7.02.03.] the value was 6.68; for `Cc1ccc(-c2cn(-c3ccc(F)cc3)c(CC(=O)N3CCc4nc(C)oc4C3)n2)cc1` [Example 7.02.04.], 6.43; for `Cc1ccc(-c2cn(-c3ccc(F)cc3)c(CC(=O)N3CCc4nc(N)sc4CC3)n2)cc1` [Example 7.02.05.], 7.28. With `Cc1ccc(-c2cn(-c3ccc(F)cc3)c(CC(=O)N3CCc4nc(C)sc4CC3)n2)cc1` [Example 7.02.06.] the figure was 7.03.

Regarding `COc1cccc(N2CCN(C(=O)Cc3nc(-c4ccc(C)cc4)cn3-c3ccc(F)cc3)CC2=O)c1` [Example 7.02.07.], the pEC50 was 7.02. For `Cc1ccc(-c2cn(-c3ccc(F)cc3)c(CC(=O)N3CCN(c4cccc(C#N)c4)C(=O)C3)n2)cc1` [Example 7.02.08.], the pEC50 was 7.49. On to `Cc1ccc(-c2cn(-c3ccc(F)cc3)c(CC(=O)N3Cc4nc(C)sc4C3)n2)cc1` [Example 7.02.09.], for which the pEC50 is 7.05. `COc1ccc(-c2cn(-c3ccc(F)cc3)c(CC(=O)N3CCc4nc(N)sc4CC3)n2)cc1` [Example 7.02.11.]: the negative logarithm of the EC50 (pEC50) was 6.99. Regarding `COc1ccc(-c2cn(-c3ccc(F)cc3)c(CC(=O)N3CCc4nc(C)sc4CC3)n2)cc1` [Example 7.02.12.], the pEC50 is 7.41.

Take `COc1ccc(-c2cn(-c3ccc(F)cc3)c(CC(=O)N3CCN(c4cccc(OC)c4)C(=O)C3)n2)cc1` [Example 7.02.13.]: the negative-log EC50 (pEC50) is 7.13. `COc1ccc(-c2cn(-c3ccc(F)cc3)c(CC(=O)N3Cc4nc(C)sc4C3)n2)cc1` [Example 7.02.14.]: the pEC50 is 7.06. In the case of `Cc1nc2c(s1)CCN(C(=O)Cc1nc(-c3ccc(Cl)c(C)c3)cn1-c1ccc(F)cc1)CC2` [Example 7.02.15.], the pEC50 was 7.35.

Regarding `Cc1cc(-c2cn(-c3ccc(F)cc3)c(CC(=O)N3CCc4nc(N)sc4CC3)n2)ccc1Cl` [Example 7.02.16.], the negative logarithm of the EC50 (pEC50) is 7.15.

Consider `Cc1nc2c(o1)CN(C(=O)Cc1nc(-c3ccc(Cl)c(C)c3)cn1-c1ccc(F)cc1)CC2` [Example 7.02.17.], for which the pEC50 was 7.10. With `Cc1nc2c(s1)CCN(C(=O)Cc1nc(-c3ccc(F)c(C)c3)cn1-c1ccc(F)cc1)CC2` [Example 7.02.18.] the figure was 7.17.

On to `Cc1nc2c(o1)CN(C(=O)Cc1nc(-c3ccc(F)c(C)c3)cn1-c1ccc(F)cc1)CC2` [Example 7.02.19.], for which the pEC50 was 7.17. With `Cc1cc(-c2cn(-c3ccc(F)cc3)c(CC(=O)N3CCc4nc(N)sc4CC3)n2)ccc1F` [Example 7.02.20.] the figure was 7.15.

For `COc1cccc(-c2cn(-c3ccc(F)cc3)c(CC(=O)N3CCc4nc(C)oc4C3)n2)c1` [Example 7.02.21.], the pEC50 was 5.95. Take `COc1cccc(-c2cn(-c3ccc(F)cc3)c(CC(=O)N3CCc4nc(C)sc4CC3)n2)c1` [Example 7.02.22.]: the pEC50 was 6.86. For `COc1ccc(-c2cn(-c3ccccc3)c(CC(=O)N3CCc4nc(N)sc4CC3)n2)cc1` [Example 7.02.23.] the value was 6.40; for `COc1ccc(-c2cn(-c3ccccc3)c(CC(=O)N3CCc4nc(C)sc4CC3)n2)cc1` [Example 7.02.24.], 6.90. For the compound `COc1ccc(-c2cn(-c3ccccc3)c(CC(=O)N3CCc4nc(C)oc4C3)n2)cc1` [Example 7.02.25.], the pEC50 is 5.84. With `Cc1cc(-c2cn(-c3ccccc3)c(CC(=O)N3CCc4nc(N)sc4CC3)n2)ccc1F` [Example 7.02.26.], the pEC50 was 7.15. `COc1cccc(N2CCN(C(=O)Cc3nc(-c4ccc(F)c(C)c4)cn3-c3ccccc3)CC2=O)c1` [Example 7.02.27.]: the pEC50 is 7.03. `Cc1nc2c(s1)CN(C(=O)Cc1nc(-c3ccc(F)c(C)c3)cn1-c1ccccc1)C2` [Example 7.02.28.]: the pEC50 is 7.32. For `Cc1nc2c(s1)CCN(C(=O)Cc1nc(-c3ccc(F)c(C)c3)cn1-c1ccccc1)CC2` [Example 7.02.29.] the value was 7.48; for `COc1ccc(-c2cn(-c3ccc(F)cc3)c(CC(=O)N3CCN(c4cccc(C#N)c4)C(=O)C3)n2)cc1` [Example 7.02.30.], 7.09.
